The source of these data is ChEMBL document CHEMBL1909046, “DrugMatrix in vitro pharmacology data”.

One data set deals with T1, Thromboxane-A synthase (Homo sapiens, UniProt P24557).
T1 sequence (P24557 whole entry): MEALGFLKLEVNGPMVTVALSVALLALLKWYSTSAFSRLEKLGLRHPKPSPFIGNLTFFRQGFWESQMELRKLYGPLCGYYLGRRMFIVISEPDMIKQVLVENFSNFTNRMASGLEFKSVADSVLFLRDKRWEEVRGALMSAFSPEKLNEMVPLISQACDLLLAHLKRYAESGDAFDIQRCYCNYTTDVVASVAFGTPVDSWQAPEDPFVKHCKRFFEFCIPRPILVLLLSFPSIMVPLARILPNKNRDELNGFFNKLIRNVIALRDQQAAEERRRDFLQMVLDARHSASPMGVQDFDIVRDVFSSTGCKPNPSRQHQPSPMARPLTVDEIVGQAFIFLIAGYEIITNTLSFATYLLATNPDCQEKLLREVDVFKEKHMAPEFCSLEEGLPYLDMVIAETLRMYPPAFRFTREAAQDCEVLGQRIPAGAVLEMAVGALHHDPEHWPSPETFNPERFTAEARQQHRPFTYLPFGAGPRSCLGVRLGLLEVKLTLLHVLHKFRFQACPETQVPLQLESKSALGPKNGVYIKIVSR
Put plainly: biochemical. The format is tissue-based, Platelet. Conditions: platelet.
Take `CC(C)(S)[C@@H](N)C(=O)O` [PENICILLAMINE]: the IC50 entry is “Not Active”.
As for `CCc1ccc(C(=O)C(C)CN2CCCCC2)cc1` (stereo not given) [EPERISONE], the IC50 entry was “Not Active”.
For the molecule `CC(=O)[C@@]1(O)CC[C@H]2[C@@H]3C[C@H](C)C4=CC(=O)C=C[C@]4(C)[C@@]3(F)[C@@H](O)C[C@@]21C` [FLUOROMETHOLONE], the IC50 entry is given as “Not Active”.

In a further data set the target is Vasopressin V1a receptor (Homo sapiens, UniProt P37288). Further: in other assays of this panel Not Active means under 50% inhibition at 10 µM.
Vasopressin V1a receptor, sequence (P37288 whole entry): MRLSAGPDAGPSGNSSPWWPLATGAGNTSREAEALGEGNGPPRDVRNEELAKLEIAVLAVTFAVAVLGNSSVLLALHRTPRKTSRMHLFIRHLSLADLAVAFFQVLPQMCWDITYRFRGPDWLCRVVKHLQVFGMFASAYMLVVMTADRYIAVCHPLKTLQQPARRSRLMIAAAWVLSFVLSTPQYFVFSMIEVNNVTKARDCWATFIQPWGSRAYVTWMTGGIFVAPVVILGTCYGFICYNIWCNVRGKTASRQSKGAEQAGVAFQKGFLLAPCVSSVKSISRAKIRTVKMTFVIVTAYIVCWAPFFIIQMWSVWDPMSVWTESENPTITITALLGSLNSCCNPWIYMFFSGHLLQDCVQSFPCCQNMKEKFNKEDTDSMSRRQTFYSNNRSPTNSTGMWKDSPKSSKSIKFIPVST
Assay: not given
Type of data set: cell membranes, Membrane. Particulars: hek293.
Take `CC(C)(S)[C@@H](N)C(=O)O` [PENICILLAMINE]: the IC50 result was “Not Active”.
On the same count and under the same terms, the result for `CCc1ccc(C(=O)C(C)CN2CCCCC2)cc1` (stereo not given) [EPERISONE] reads “Not Active”; that for `CC(=O)[C@@]1(O)CC[C@H]2[C@@H]3C[C@H](C)C4=CC(=O)C=C[C@]4(C)[C@@]3(F)[C@@H](O)C[C@@]21C` [FLUOROMETHOLONE], “Not Active”.

For a further data set, the target named is Carbonic anhydrase 2 (Homo sapiens, UniProt P00918). The experiment in a line: DRUGMATRIX: Carbonic Anhydrase II enzyme inhibition (substrate: 4-Nitrophenyl acetate (4-NPA)). The format is tissue-based, Erythrocyte. Conditions: erythrocyte; Not Active = under 50% inhibition at 10 µM.
In the case of `CC(C)(S)[C@@H](N)C(=O)O` [PENICILLAMINE], the IC50 entry was “Not Active”.
On to `CCc1ccc(C(=O)C(C)CN2CCCCC2)cc1` (stereo not given) [EPERISONE], for which the IC50 entry is listed as “Not Active”.
On the same count and under the same terms, the result for `CC(=O)[C@@]1(O)CC[C@H]2[C@@H]3C[C@H](C)C4=CC(=O)C=C[C@]4(C)[C@@]3(F)[C@@H](O)C[C@@]21C` [FLUOROMETHOLONE] reads “Not Active”.

A further data set deals with T2, Neuropeptide Y receptor type 2 (Homo sapiens, UniProt P49146).
T2 sequence (P49146 whole entry): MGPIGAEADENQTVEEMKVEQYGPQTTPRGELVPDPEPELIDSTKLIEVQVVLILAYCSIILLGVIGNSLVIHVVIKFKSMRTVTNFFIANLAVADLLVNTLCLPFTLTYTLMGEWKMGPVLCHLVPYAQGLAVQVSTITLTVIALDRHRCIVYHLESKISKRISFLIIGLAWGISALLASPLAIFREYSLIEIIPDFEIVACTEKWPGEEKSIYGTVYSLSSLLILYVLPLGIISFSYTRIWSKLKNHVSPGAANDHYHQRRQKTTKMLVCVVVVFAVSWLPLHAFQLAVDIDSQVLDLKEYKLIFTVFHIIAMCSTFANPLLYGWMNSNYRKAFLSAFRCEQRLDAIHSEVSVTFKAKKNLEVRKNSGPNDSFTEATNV
Assay: not given
Particulars: kan-ts. Type of data set: cell membranes, Membrane.
In the case of `CC(C)(S)[C@@H](N)C(=O)O` [PENICILLAMINE], the IC50 result is “Not Active”.
Same read-out and setting: the result for `CCc1ccc(C(=O)C(C)CN2CCCCC2)cc1` (stereo not given) [EPERISONE] reads “Not Active”; that for `CC(=O)[C@@]1(O)CC[C@H]2[C@@H]3C[C@H](C)C4=CC(=O)C=C[C@]4(C)[C@@]3(F)[C@@H](O)C[C@@]21C` [FLUOROMETHOLONE], “Not Active”.

The target in another data set is Acetylcholinesterase (Homo sapiens, UniProt P22303). Put plainly: DRUGMATRIX: Acetylcholinesterase enzyme inhibition (substrate: acetylthiocholine). The format is cell-based, HEK293. Particulars: hek293; Not Active = under 50% inhibition at 10 µM.
Acetylcholinesterase, sequence (P22303 whole entry): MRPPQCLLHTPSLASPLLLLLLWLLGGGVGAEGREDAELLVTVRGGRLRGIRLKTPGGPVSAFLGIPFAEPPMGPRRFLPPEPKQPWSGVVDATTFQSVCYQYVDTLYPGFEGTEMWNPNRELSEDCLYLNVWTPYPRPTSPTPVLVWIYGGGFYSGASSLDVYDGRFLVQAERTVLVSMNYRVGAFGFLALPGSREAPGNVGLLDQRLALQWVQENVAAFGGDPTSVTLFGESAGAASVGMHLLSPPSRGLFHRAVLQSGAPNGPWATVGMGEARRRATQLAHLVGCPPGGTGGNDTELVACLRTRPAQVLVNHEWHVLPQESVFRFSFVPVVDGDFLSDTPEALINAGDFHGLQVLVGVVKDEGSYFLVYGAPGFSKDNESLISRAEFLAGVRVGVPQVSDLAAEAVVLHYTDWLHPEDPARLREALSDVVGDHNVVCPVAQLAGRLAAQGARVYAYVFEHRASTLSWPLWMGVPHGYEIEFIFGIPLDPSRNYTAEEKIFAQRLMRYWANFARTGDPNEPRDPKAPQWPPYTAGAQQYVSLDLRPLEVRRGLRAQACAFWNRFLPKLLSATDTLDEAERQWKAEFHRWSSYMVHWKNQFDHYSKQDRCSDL
Consider `CC(C)(S)[C@@H](N)C(=O)O` [PENICILLAMINE], for which the IC50 entry is recorded as “Not Active”.
On the same count and under the same terms, the result for `CCc1ccc(C(=O)C(C)CN2CCCCC2)cc1` (stereo not given) [EPERISONE] reads “Not Active”; that for `CC(=O)[C@@]1(O)CC[C@H]2[C@@H]3C[C@H](C)C4=CC(=O)C=C[C@]4(C)[C@@]3(F)[C@@H](O)C[C@@]21C` [FLUOROMETHOLONE], “Not Active”.

The target in another data set is T3, Cytochrome P450 1A2 (Homo sapiens, UniProt P05177). Further: in other assays of this panel Not Active means under 50% inhibition at 10 µM.
T3 sequence (P05177 whole entry): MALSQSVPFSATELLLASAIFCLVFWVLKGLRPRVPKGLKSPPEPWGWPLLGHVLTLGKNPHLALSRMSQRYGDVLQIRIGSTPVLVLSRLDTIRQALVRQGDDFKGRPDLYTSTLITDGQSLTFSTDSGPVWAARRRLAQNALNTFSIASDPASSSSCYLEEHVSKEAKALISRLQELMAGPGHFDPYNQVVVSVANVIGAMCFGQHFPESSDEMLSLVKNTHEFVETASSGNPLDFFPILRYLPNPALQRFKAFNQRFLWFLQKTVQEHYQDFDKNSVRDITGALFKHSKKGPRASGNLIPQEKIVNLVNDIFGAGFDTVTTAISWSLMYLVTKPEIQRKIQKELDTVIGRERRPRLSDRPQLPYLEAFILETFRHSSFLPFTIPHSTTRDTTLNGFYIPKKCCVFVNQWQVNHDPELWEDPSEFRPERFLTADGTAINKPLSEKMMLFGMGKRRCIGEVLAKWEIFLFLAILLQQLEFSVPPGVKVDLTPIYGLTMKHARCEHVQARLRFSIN
Assay: not given
Particulars: bti-tn-5b1-4.
On to `CC(C)(S)[C@@H](N)C(=O)O` [PENICILLAMINE], for which the IC50 result is “Not Active” and the Ki result was “Not Active”.
In the case of `CCc1ccc(C(=O)C(C)CN2CCCCC2)cc1` (stereo not given) [EPERISONE], the IC50 result was “Not Active” and the Ki result was “Not Active”.
Regarding `CC(=O)[C@@]1(O)CC[C@H]2[C@@H]3C[C@H](C)C4=CC(=O)C=C[C@]4(C)[C@@]3(F)[C@@H](O)C[C@@]21C` [FLUOROMETHOLONE], the IC50 entry was “Not Active” and the Ki entry is reported as “Not Active”.

A further data set has as its target T4, Cytochrome P450 2A6 (Homo sapiens, UniProt P11509). Further: in other assays of this panel Not Active means under 50% inhibition at 10 µM.
T4 sequence (P11509 whole entry): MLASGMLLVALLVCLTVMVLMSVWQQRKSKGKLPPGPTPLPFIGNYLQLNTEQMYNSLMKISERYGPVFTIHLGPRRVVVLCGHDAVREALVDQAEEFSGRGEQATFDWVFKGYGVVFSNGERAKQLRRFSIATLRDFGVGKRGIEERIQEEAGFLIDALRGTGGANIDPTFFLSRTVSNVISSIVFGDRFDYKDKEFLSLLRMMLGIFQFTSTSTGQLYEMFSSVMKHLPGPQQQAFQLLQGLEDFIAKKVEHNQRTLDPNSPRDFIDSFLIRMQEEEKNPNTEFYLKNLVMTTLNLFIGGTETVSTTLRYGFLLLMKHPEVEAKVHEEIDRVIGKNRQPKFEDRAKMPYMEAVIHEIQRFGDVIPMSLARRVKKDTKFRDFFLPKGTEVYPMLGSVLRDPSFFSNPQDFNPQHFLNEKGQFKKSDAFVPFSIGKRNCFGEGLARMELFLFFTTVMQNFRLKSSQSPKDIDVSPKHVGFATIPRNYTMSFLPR
Assay: not given
Conditions: bti-tn-5b1-4.
In the case of `CC(C)(S)[C@@H](N)C(=O)O` [PENICILLAMINE], the IC50 result was “Not Active” and the Ki entry is listed as “Not Active”.
As to `CCc1ccc(C(=O)C(C)CN2CCCCC2)cc1` (stereo not given) [EPERISONE], the IC50 entry is recorded as “Not Active” and the Ki entry was “Not Active”.
As to `CC(=O)[C@@]1(O)CC[C@H]2[C@@H]3C[C@H](C)C4=CC(=O)C=C[C@]4(C)[C@@]3(F)[C@@H](O)C[C@@]21C` [FLUOROMETHOLONE], the IC50 entry is “Not Active” and the Ki result is recorded as “Not Active”.

For another data set, the target named is Cytochrome P450 2C19 (Homo sapiens, UniProt P33261). Further: in other assays of this panel Not Active means under 50% inhibition at 10 µM.
Cytochrome P450 2C19, sequence (P33261 whole entry): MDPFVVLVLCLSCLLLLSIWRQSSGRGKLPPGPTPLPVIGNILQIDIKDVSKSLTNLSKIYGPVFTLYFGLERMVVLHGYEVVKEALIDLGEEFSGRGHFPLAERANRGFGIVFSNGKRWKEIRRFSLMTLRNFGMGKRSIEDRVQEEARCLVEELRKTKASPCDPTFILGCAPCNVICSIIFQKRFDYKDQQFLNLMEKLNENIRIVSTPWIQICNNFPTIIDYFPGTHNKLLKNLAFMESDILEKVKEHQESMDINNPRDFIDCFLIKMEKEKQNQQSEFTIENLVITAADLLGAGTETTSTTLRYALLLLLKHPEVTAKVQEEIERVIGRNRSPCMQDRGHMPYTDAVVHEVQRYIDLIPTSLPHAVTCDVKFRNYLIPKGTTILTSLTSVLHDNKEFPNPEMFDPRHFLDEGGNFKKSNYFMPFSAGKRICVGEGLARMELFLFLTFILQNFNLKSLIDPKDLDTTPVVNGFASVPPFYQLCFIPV
Assay: not given
Particulars: bti-tn-5b1-4.
Turning to `CC(C)(S)[C@@H](N)C(=O)O` [PENICILLAMINE], the IC50 entry is “Not Active” and the Ki result is listed as “Not Active”.
Regarding `CCc1ccc(C(=O)C(C)CN2CCCCC2)cc1` (stereo not given) [EPERISONE], the IC50 result is given as “Not Active” and the Ki result is “Not Active”.
As for `CC(=O)[C@@]1(O)CC[C@H]2[C@@H]3C[C@H](C)C4=CC(=O)C=C[C@]4(C)[C@@]3(F)[C@@H](O)C[C@@]21C` [FLUOROMETHOLONE], the IC50 result is on record as “Not Active” and the Ki result is “Not Active”.

The target in the next data set is Cytochrome P450 3A4 (Homo sapiens, UniProt P08684). Further: in other assays of this panel Not Active means under 50% inhibition at 10 µM.
Cytochrome P450 3A4, sequence (P08684 whole entry): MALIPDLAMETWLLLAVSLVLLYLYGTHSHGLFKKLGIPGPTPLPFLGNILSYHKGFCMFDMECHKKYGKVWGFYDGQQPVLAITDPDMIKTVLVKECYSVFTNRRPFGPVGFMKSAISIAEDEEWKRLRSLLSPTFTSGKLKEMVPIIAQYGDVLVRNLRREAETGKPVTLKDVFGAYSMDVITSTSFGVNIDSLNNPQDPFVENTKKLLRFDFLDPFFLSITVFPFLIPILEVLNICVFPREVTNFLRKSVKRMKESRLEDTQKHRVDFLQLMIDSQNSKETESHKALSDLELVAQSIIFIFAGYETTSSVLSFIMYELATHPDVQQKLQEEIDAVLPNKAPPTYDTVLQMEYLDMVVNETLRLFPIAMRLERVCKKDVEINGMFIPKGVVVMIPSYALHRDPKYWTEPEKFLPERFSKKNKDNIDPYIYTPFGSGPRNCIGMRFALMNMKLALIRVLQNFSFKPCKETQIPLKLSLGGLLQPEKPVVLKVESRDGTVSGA
Assay: not given
Conditions: bti-tn-5b1-4.
Take `CC(C)(S)[C@@H](N)C(=O)O` [PENICILLAMINE]: the IC50 result was “Not Active” and the Ki entry is recorded as “Not Active”.
On to `CCc1ccc(C(=O)C(C)CN2CCCCC2)cc1` (stereo not given) [EPERISONE], for which the IC50 result is given as “Not Active” and the Ki entry is “Not Active”.
Regarding `CC(=O)[C@@]1(O)CC[C@H]2[C@@H]3C[C@H](C)C4=CC(=O)C=C[C@]4(C)[C@@]3(F)[C@@H](O)C[C@@]21C` [FLUOROMETHOLONE], the IC50 entry is reported as “Not Active” and the Ki result is “Not Active”.

In another data set the target is Voltage-gated inwardly rectifying potassium channel KCNH2 (Homo sapiens, UniProt Q12809). Further: in other assays of this panel Not Active means under 50% inhibition at 10 µM.
Voltage-gated inwardly rectifying potassium channel KCNH2, sequence (Q12809 whole entry): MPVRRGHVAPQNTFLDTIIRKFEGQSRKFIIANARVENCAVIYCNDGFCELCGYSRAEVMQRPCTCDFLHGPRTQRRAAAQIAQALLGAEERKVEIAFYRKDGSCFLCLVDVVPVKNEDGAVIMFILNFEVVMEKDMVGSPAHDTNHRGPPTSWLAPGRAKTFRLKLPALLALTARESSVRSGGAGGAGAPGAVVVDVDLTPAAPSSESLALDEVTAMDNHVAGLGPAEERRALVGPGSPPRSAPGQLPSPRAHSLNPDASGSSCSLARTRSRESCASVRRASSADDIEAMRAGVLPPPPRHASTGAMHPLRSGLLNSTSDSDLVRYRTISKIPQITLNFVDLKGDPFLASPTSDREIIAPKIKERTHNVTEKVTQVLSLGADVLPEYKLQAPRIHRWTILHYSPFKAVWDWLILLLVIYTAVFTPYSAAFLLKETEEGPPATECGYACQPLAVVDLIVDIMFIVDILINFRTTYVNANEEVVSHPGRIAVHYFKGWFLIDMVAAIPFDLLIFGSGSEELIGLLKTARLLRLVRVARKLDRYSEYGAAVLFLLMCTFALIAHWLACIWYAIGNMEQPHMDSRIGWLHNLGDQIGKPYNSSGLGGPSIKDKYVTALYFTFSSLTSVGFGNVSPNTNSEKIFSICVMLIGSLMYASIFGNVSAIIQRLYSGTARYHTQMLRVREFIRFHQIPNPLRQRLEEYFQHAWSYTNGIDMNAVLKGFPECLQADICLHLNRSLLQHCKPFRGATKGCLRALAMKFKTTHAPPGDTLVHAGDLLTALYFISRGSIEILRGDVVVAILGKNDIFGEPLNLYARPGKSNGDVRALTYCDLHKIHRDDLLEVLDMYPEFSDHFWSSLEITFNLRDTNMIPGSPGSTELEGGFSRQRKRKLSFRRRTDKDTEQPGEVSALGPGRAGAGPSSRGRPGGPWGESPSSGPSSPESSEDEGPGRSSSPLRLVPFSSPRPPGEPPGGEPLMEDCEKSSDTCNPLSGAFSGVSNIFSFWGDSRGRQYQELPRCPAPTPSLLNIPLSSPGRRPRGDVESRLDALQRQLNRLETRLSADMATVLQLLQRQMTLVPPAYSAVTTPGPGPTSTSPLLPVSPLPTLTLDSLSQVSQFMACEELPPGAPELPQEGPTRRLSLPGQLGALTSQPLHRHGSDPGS
Assay: not given
Particulars: hek293.
In the case of `CC(C)(S)[C@@H](N)C(=O)O` [PENICILLAMINE], the IC50 result is on record as “Not Active” and the Ki result was “Not Active”.
Consider `CCc1ccc(C(=O)C(C)CN2CCCCC2)cc1` (stereo not given) [EPERISONE], for which the IC50 entry was “Not Active” and the Ki result is reported as “Not Active”.
In the case of `CC(=O)[C@@]1(O)CC[C@H]2[C@@H]3C[C@H](C)C4=CC(=O)C=C[C@]4(C)[C@@]3(F)[C@@H](O)C[C@@]21C` [FLUOROMETHOLONE], the IC50 result was “Not Active” and the Ki entry was “Not Active”.
